Measured values from US4200575A, “7[(2-Thiazolyl)-2-(oxoimino)acetamido]cephalosporin derivatives” (Takeda Chemical Industries, Ltd., priority 1977, dated 1980).

Experiments:
Experiment in all cases: Minimal inhibitory concentration (M.I.C.), agar dilution method
Settings in all cases: TSA, inoculum 10^7 /ml
E. coli 0-111 = assay type: cell-based, Escherichia coli
Source text: The minimal inhibitory concentrations (M.I.C.) of some representative cephalosporin derivatives of this invention as produced by the procedures described in those examples and the minimal inhibitory concentrations of cephalothin [sodium 7-(2-thienylacetamido)-3-acetoxymethyl-3-cephem-4-carboxylate], cephaloridine [7-(2-thienylacetamido)-3-(1-pyridyl)methyl-3-cephem-4-carboxylic acid betaine] and cefazolin [sodium 7-(1H-tetrazol-1-yl)acetamido-3-(2-methyl-1,3,4-thiadiazol-5-yl)thiomethyl-3-cephem-4-carboxylate], which are among the clinically established and commercially available cephalosporins (as described, for example, in the New England Journal of Medicine 294, 24, 1976 and Journal of Pharmaceutical Science 64, 1899, 1975), both against various bacteria, as well as the therapeutic effects of some respresentative cephalosporin derivatives of this invention and of cephaloridine in infected mice, are shown in tables.
(§1) (a) Determination of minimal inhibitory concentrations (Tables 1 to 8):
(§2) Procedure: agar dilution method

S. aureus 209P = assay type: cell-based, Staphylococcus aureus
Source text: as §1, §2

S. aureus 1840 = assay type: cell-based, Staphylococcus aureus
Source text: as §1, §2

P. vulgaris IFO 3988 = assay type: cell-based, Proteus vulgaris
Source text: as §1, §2

P. vulgaris GN 4413 = assay type: cell-based, Proteus vulgaris
Source text: as §1, §2

E. cloacae TN 1282 = assay type: cell-based, Enterobacter cloacae
Source text: as §1, §2

S. marcescens TN 24 = assay type: cell-based, Serratia marcescens
Source text: as §1, §2

S. marcescens IFO 12648 = assay type: cell-based, Serratia marcescens
Source text: as §1, §2

P. mirabilis GN 4359 = assay type: cell-based, Proteus mirabilis
Source text: as §1, §2

C. freundii GN 1706 = assay type: cell-based, Citrobacter freundii
Source text: as §1, §2

C. freundii GN 99 = assay type: cell-based, Citrobacter freundii
Source text: as §1, §2

E. coli T-7 = assay type: cell-based, Escherichia coli
Source text: as §1, §2

E. coli NIHJ JC-2 = assay type: cell-based, Escherichia coli
Source text: as §1, §2

K. pneumoniae GN 3835 = assay type: cell-based, Klebsiella pneumoniae
Source text: as §1, §2

K. pneumoniae DT = assay type: cell-based, Klebsiella pneumoniae
Source text: as §1, §2

P. rettgeri TN 338 = assay type: cell-based, Proteus rettgeri
Source text: as §1, §2

P. rettgeri GN4733 = assay type: cell-based, Proteus rettgeri
Source text: as §1, §2

P. morganii IFO 3168 = assay type: cell-based, Proteus morganii
Source text: as §1, §2

Row | SMILES | minimal inhibitory concentration (M.I.C.) (E. coli 0-111) | minimal inhibitory concentration (M.I.C.) (S. aureus 209P) | minimal inhibitory concentration (M.I.C.) (S. aureus 1840) | minimal inhibitory concentration (M.I.C.) (P. vulgaris IFO 3988) | minimal inhibitory concentration (M.I.C.) (P. vulgaris GN 4413) | minimal inhibitory concentration (M.I.C.) (E. cloacae TN 1282) | minimal inhibitory concentration (M.I.C.) (S. marcescens TN 24) | minimal inhibitory concentration (M.I.C.) (S. marcescens IFO 12648) | minimal inhibitory concentration (M.I.C.) (P. mirabilis GN 4359) | minimal inhibitory concentration (M.I.C.) (C. freundii GN 1706) | minimal inhibitory concentration (M.I.C.) (C. freundii GN 99) | minimal inhibitory concentration (M.I.C.) (E. coli T-7) | minimal inhibitory concentration (M.I.C.) (E. coli NIHJ JC-2) | minimal inhibitory concentration (M.I.C.) (K. pneumoniae GN 3835) | minimal inhibitory concentration (M.I.C.) (K. pneumoniae DT) | minimal inhibitory concentration (M.I.C.) (P. rettgeri TN 338) | minimal inhibitory concentration (M.I.C.) (P. rettgeri GN4733) | minimal inhibitory concentration (M.I.C.) (P. morganii IFO 3168)
1 | CCNC(=O)O/N=C(\C(=O)NC1C(=O)N2C(C(=O)O)=C(COC(N)=O)CSC12)c1csc(=N)[nH]1 (stereo not drawn) [Example II - 8] | 0.024 | 3.13 | 3.13 | 0.1 | 100 | 12.5 | 6.25 | 6.25 | 0.1 | 0.39 | 0.1 | 1.56 | 0.2 | 0.2 | 0.05 | ≤ 0.012 | 0.05 | 3.13
2 | CCNC(=O)O/N=C(\C(=O)NC1C(=O)N2C(C(=O)O)=C(CSc3nnnn3C)CSC12)c1csc(=N)[nH]1 (stereo not drawn) [Example II - 9] | 0.05 | 1.56 | 3.13 | 0.2 | 25 | 6.25 | 3.13 | 3.13 | 0.39 | 0.78 | 0.2 | 3.13 | 0.39 | 0.78 | 0.1 | ≤ 0.012 | 0.2 | 1.56
3 | CCNC(=O)O/N=C(\C(=O)NC1C(=O)N2C(C(=O)O)=C(COC(C)=O)CSC12)c1csc(=N)[nH]1 (stereo not drawn) [Example II - 7] | 0.024 | 1.56 | 3.13 | 0.2 | 6.25 | 12.5 | 6.25 | 6.25 | 0.1 | 0.78 | 0.39 | 1.56 | 0.39 | 0.39 | 0.05 | ≤ 0.012 | 0.1 | 1.56
4 | CNC(=O)O/N=C(\C(=O)NC1C(=O)N2C(C(=O)O)=C(COC(C)=O)CSC12)c1csc(=N)[nH]1 (stereo not drawn) [Example II - 1, sodium 7-[2-(2-imino-4-thiazolin-4-yl)-2-methylcarbamoyloximinoacetamido]-3-acetoxymethyl-3-cephem-4-carboxylate (syn-isomer)] | ≤ 0.012 | 1.56 | 3.13 | 0.05 | 12.5 | 1.56 | 6.25 | 3.13 | 0.1 | 0.39 | 0.1 | 0.39 | 0.1 | 0.1 | 0.05 | ≤ 0.012 | 0.05 | 0.39
5 | CCCCNC(=O)O/N=C(\C(=O)NC1C(=O)N2C(C(=O)O)=C(CSc3nnnn3C)CSC12)c1csc(=N)[nH]1 (stereo not drawn) [Example II - 22] | 0.024 | 0.78 | 3.13 | 0.1 | 12.5 | 12.5 | 5.13 | 6.25 | 0.39 | 0.78 | 0.2 | 6.25 | 0.39 | 0.78 | 0.1 | ≤ 0.012 | 0.1 | 0.78
6 | CNC(=O)O/N=C(\C(=O)NC1C(=O)N2C(C(=O)O)=C(CSc3nnc(C)o3)CSC12)c1csc(=N)[nH]1 (stereo not drawn) [Example IV - 10] | ≤ 0.2 | 1.56 | 3.13 | 0.39 | 25 | 3.13 | 6.25 | 6.25 | 0.39 | 0.78 | 0.39 | 6.25 | 0.39 | 0.78 | ≤ 0.2 | ≤ 0.2 | 0.78 | 0.39
7 | CC(=O)OCC1=C(C(=O)O)N2C(=O)C(NC(=O)/C(=N\OC(=O)NC3CCCCC3)c3csc(=N)[nH]3)C2SC1 (stereo not drawn) [Example II - 24] | 0.024 | 0.78 | 1.56 | 0.1 | 25 | 3.13 | 12.5 | 6.25 | 0.1 | 0.78 | 0.39 | 1.56 | 0.1 | 0.39 | 0.05 | ≤ 0.012 | 0.05 | 0.39
8 | CNC(=O)O/N=C(\C(=O)NC1C(=O)N2C(C(=O)O)=C(CSc3nnc(CO)n3C)CSC12)c1csc(=N)[nH]1 (stereo not drawn) [Example IV - 5] | ≤ 0.2 | 6.25 | 6.25 | 0.39 | 25 | 3.13 | 3.13 | 3.13 | 0.39 | 0.78 | 0.39 | 1.56 | ≤ 0.2 | 0.39 | ≤ 0.2 | ≤ 0.2 | 0.78 | 0.39
